We go through one compound from US12331135B2, “Anti-tyrosinase antibody for inhibiting tyrosinase and use thereof” (HAUUL BIO, priority 2019, dated 2025).

What all share (type): cell-based, mouse
Data set [1] has as its system B16F10 cells. Kind of data set: Cytotoxicity test (MTT). To be noted: unit assumed. The protocol:
In order to examine cytotoxicity of the TAT-α-tyrosinase scFv antibody, B16F10 cells, mouse-derived malignant melanoma cells, were cultured in a CO2 incubator at 37° C. After the culture, the cells were treated with the TAT-α-tyrosinase scFv antibody at different concentrations (0.1, 1, 5, 10, 50, 100 ppm), and then further cultured under the same culture conditions. After the culture, MTT{3-(4,5-Dimethylthiazol-2-yl)-2,5-Diphenyltetrazolium Bromide} solution was added and cultured. After that, the culture solution was removed, and DMSO (dimethyl sulfoxide) was added and shaken moderately.

Data set [2] concerns B16F10 cells. Put plainly: Melanin production inhibitory effect test. The following applies: 100 ppm, absorbance 475 nm. The protocol: To determine an inhibitory effect of the TAT-α-tyrosinase scFv antibody on melanin production in cells, B16F10 cell lines were treated with the TAT-α-tyrosinase scFv antibody and then the produced intracellular melanin content was measured. B16F10 cells, which are malignant melanoma cells, were cultured at 37° C. in the CO2 incubator. Thereafter, the cells were treated with 10 ppm of the TAT-α-tyrosinase scFv antibody and 100 ppm of arbutin as a positive control, followed by further culture under the same culture conditions. After the culture, each well was washed with PBS and 130 ul of 1 N NaOH solution was added to dissolve it at 60° C. for 1 hour.

Data set [3] has as its system B16F10 cells. Put plainly: Reactive oxygen species inhibitory effect test. The protocol: In order to determine the inhibitory effect of the TAT-α-tyrosinase scFv antibody on reactive oxygen species in cells, the B16F10 cell lines were treated with the TAT-α-tyrosinase scFv antibody, and then the content of intracellular reactive oxygen species was measured using fluorescence staining. B16F10 cells, which are malignant melanoma cells, were cultured in the CO2 incubator at 37° C. Thereafter, the cells were treated with 100 ppm of the TAT-α-tyrosinase scFv antibody and 100 ppm of arbutin as a positive control, and then further cultured under the same culture conditions. After the culture, 0.2 mM hydrogen peroxide was added to each well, and then cultured for 2 hours. Carboxy-H2DCF-DA was added and reaction was carried out at 37° C. for 30 minutes. After washing with PBS, fluorescence was measured with the ELISA Reader system at 475/535 nm by re-addition of PBS, and the values are shown in Table 4.

Turning to `OC[C@H]1O[C@@H](Oc2ccc(O)cc2)[C@H](O)[C@@H](O)[C@@H]1O` [Arbutin], the Cell viability (MTT, absorbance at 570 nm), Average in data set [1] (0.1 ppm) turned out to be 97.6%; in data set [1] (1 ppm), 97%; in data set [1] (5 ppm), 83.5%; in data set [1] (10 ppm), 89.3%; in data set [1] (50 ppm) it was 82.4%; in data set [1] (100 ppm), 57.7%. In addition, the “Melanin biosynthesis amount (% of control), Average” value in data set [2] is listed as 66.1 % of control. Also, the “ROS (fold of control), Average” value is reported as 1.29 fold of control in data set [3] (0.2 mM H2O2, 100 ppm) and 0.82 fold of control in data set [3] (non treat control (no H2O2), 100 ppm).
